Results from publication PMC8379256, “A xanthene derivative, DS20060511, attenuates glucose intolerance by inducing skeletal muscle-specific GLUT4 translocation in mice” (Communications Biology, 2021).
“And” between values parts separate entries of the source, which are not always exact repeats. Equal entries are not always repeated.

Legend:
Format in all cases: cell-based, rat
[1] = tested on: L6-GLUT4myc myotubes; experiment: GLUT4 translocation: cell surface GLUT4myc by anti-Myc antibody assay in L6-GLUT4myc myotubes; design: key to GLUT4 translocation: fold of vehicle-treated group; conditions: for Ratio: GLUT4 translocation normalized to vehicle; for A - background / A: Abs. (450 nm): GLUT4 translocation
Protocol: (§1) The L6-GLUT4myc rat myoblast cell line was obtained from Dr. Amira Klip and Dr. Philip Bilan, through a license granted by The Hospital for Sick Children, 555 University Avenue, Toronto, Ontario, Canada M5G 1 × 8; or purchased from Kerafast, Boston, MA (ESK202)[43]. The 3T3-L1-GLUT4myc fibroblast cell line was provided by Dr. Tomoyuki Yuasa, Tokushima University[44]. L6-GLUT4myc myoblasts were grown in MEMα (32571036, Thermo Fisher Scientific, Waltham, MA) supplemented with 10% FBS and 1% antibiotics, and then induced to differentiate into myotubes in MEMα supplemented with 2% FBS and 1% antibiotics for 5–8 days. 3T3-L1-GLUT4myc fibroblasts were induced to differentiate into adipocytes as described previously,[45] with minor modifications. Briefly, cells were grown to confluence in growth medium: DMEM (10569010, Thermo Fisher Scientific) supplemented with 10% FBS and 1% antibiotics, and then induced to differentiate into adipocytes in growth medium supplemented with 1 μM dexamethasone, 2 μM rosiglitazone, 0.5 mM isobutylmethylxanthine, and 10 μg mL^−1 insulin for 2 days. The adipocytes were then cultured in growth medium supplemented with 10 μg mL^−1 insulin for a few days before being used for the experiments.
Cell surface GLUT4 levels in the L6-GLUT4myc myoblasts and myotubes were determined by antibody binding assay as described previously[43],[44], with minor modifications. Briefly, cells in a 96- or 24-well plate were starved in serum-free MEMα (0.1% BSA and 1% antibiotics) for 3 h and then treated with the indicated concentrations of DS20060511 and/or insulin for 30 min at 37 °C. After fixation with 4% paraformaldehyde, the cells were incubated with 1% glycine in PBS at 4 °C for 10 min, and blocked with 10% normal goat serum and 3% BSA in PBS at 4 °C for 30 min. The cells were then incubated with anti-c-Myc antibody (sc-40, 1:500) diluted with blocking buffer at 4 °C for 1 h, washed with cold PBS(+), incubated with HRP-conjugated anti-mouse IgG diluted with blocking buffer at 4 °C for 30 min, and then washed again. SuperSignal ELISA Pico Chemiluminescent Substrate (Thermo Fisher Scientific) was added and the luminescent signal was measured. To investigate GLUT4 translocation in the 3T3-L1-GLUT4myc adipocytes, the cells were prepared in a 24-well plate, and anti-c-Myc antibody (sc-789, 1:1000), HRP-conjugated anti-rabbit IgG and SIGMAFAST OPD regent (Sigma–Aldrich) were added for optical detection of the cell surface GLUT4myc levels. The GLUT4 translocation activity was normalized to that in the vehicle-treated group.

[2] = tested on: L6-GLUT4myc myotubes; experiment: In vitro cellular 2-DG uptake in L6-GLUT4myc myotubes; conditions: for Ratio: 2-DG uptake normalized to vehicle; for A - background / A: dpm: 2-DG uptake
Protocol: as §1
L6-GLUT4myc myotubes and 3T3-L1-GLUT4myc adipocytes were incubated in the wells of a 24-well plate containing serum-free medium for 3 h at 37 °C and then incubated in glucose-free medium for 30 min at 37 °C. The cells were treated with the indicated concentrations of DS20060511 or insulin for 30 min at 37 °C, followed by the addition of 1 mM 2-deoxy-D-glucose (2-DG) and 0.3 μCi mL^−1 [^3H]-2-DG for 10 min. 2-DG uptake was measured with a liquid scintillation counter (Tri-Carb 2810TR, PerkinElmer, Waltham, MA) and normalized to the level in the vehicle-treated group.

[3] = tested on: L6-GLUT4myc myotubes; experiment: Fluorescence immunostaining of cell surface GLUT4 and actin fibers in L6-GLUT4myc myotubes; conditions: 30 μM DS20060511 or 100 nM insulin; Fig. 4c
Protocol: Arrowheads indicate the characteristic ruffled structure of the polymerized actin and actin-associated surface GLUT4. d GLUT4 translocation activity of 30 μM DS20060511 or 100 nM insulin in the presence of the actin polymerization inhibitor, Latrunculin B, at the indicated concentrations. Values shown are means ± SEM, n = 3. **P < 0.01 vs. 0 nM Latrunculin B by one-way ANOVA followed by Dunnett’s test. e Concentration-dependent insulin-stimulated GLUT4 translocation in L6-GLUT4myc myotubes with or without 30 μM DS20060511 (n = 3). f Concentration-dependent DS20060511-stimulated 2-DG uptake with 100 nM insulin in isolated muscles from C57BL/6 mice (n = 3). Values shown are means ± SEM. ***P < 0.001 by one-way ANOVA followed by Tukey’s test. g Blood glucose levels during ITT in STZ-treated C57BL/6 mice (n = 6–7). Vehicle or indicated dose of DS20060511 was given orally at the same time as 0.1 U kg^−1 insulin injection intraperitoneally. Values shown are means ± SEM. *P < 0.05 vs. vehicle by one-way ANOVA followed by Dunnett’s test. c Scale bar in all panels, 5 μm. Uncropped blots for a and b can be found in Supplementary Fig. 6.
Differentiated L6-GLUT4myc myotubes were prepared in a collagen-coated four-well chamber slide. After serum starvation for 3 h, the cells were stimulated with insulin or DS20060511 for 15 min at 37 °C. Cells were rinsed with cold PBS(+), fixed with 4% paraformaldehyde for 30 min on ice and blocked with 1% BSA and 10% normal goat serum in PBS(+) for 30 min at room temperature. Surface GLUT4myc staining was carried out without cell membrane permeabilization. Cells were incubated with anti-c-Myc antibody for 30 min at room temperature, followed by treatment with 0.1% Triton-X. After blocking, the cells were incubated with Alexa 488-conjugated secondary antibody and Alexa 594-conjugated phalloidin for 30 min at room temperature. Fluorescence images were obtained with a Leica TSC-SP8 confocal microscope. Specimens were scanned along the z-axis and a single-composite image was generated by the maximal projection method using the LAS software (Leica Microsystems, Wetzlar, Germany).

[4] = tested on: L6-GLUT4myc myotubes; experiment: GLUT4 translocation: cell surface GLUT4myc by anti-Myc antibody assay in L6-GLUT4myc myotubes

Q: For “Insulin: Insulin (Humulin, Eli Lilly) in the in vivo experiments; Insulin solution human (I9278, Sigma–Aldrich) in the in vitro experiments”, which Ratio ([1]; Insulin 1 nM) is on record?
A: The Ratio was 1.41 and 1.40 and 1.33.

Q: What about the Ratio ([1]; Insulin 10 nM) of the same compound?
A: Its Ratio is 1.91 and 1.96 and 1.84.

Q: And the Ratio ([1]; Insulin 100 nM)?
A: The Ratio was 2.47 and 2.48 and 2.46.

Q: And the A - background ([1]; Insulin 1 nM)?
A: The A - background was 0.111 and 0.106 and 0.112.

Q: And the “A: Abs. (450 nm)” value ([1]; Insulin 1 nM)?
A: The value was 0.201 and 0.196 and 0.202.

Q: And the A - background ([1]; Insulin 10 nM)?
A: The A - background was 0.156 and 0.146 and 0.152.

Q: And the “A: Abs. (450 nm)” value ([1]; Insulin 10 nM)?
A: Its value is 0.246 and 0.236 and 0.242.

Q: And the A - background ([1]; Insulin 100 nM)?
A: The A - background was 0.196 and 0.194 and 0.195.

Q: What about the GLUT4 translocation ([1]; Insulin 100 nM, Latrunculin B 0 nM, normalized to vehicle) of the same compound?
A: The GLUT4 translocation was 3.11 and 3.04 and 3.07.

Q: What about the GLUT4 translocation ([1]; Insulin 100 nM, Latrunculin B 10 nM) of the same compound?
A: Its GLUT4 translocation is 3.38 and 3.09 and 3.08.

Q: And the GLUT4 translocation ([1]; Insulin 100 nM, Latrunculin B 30 nM)?
A: Its GLUT4 translocation is 2.53 and 2.30 and 2.42.

Q: What about the GLUT4 translocation ([1]; Insulin 100 nM, Latrunculin B 100 nM) of the same compound?
A: Its GLUT4 translocation is 2.62 and 2.09 and 2.39.

Q: And the GLUT4 translocation ([1]; Insulin 100 nM, Latrunculin B 200 nM)?
A: The GLUT4 translocation was 2.01 and 1.93.

Q: And the Ratio ([2]; Insulin 1 nM)?
A: Its Ratio is 1.26 and 1.31 and 1.36.

Q: And the Ratio ([2]; Insulin 10 nM)?
A: The Ratio was 1.62 and 1.58 and 1.67.

Q: And the Ratio ([2]; Insulin 100 nM)?
A: Its Ratio is 1.81 and 1.94 and 2.02.

Q: What about the A - background ([2]; Insulin 1 nM) of the same compound?
A: The A - background was 1594 dpm and 1651 dpm and 1530 dpm.

Q: And the “A: dpm” value ([2]; Insulin 1 nM)?
A: The value was 1699 dpm and 1756 dpm and 1635 dpm.

Q: What about the A - background ([2]; Insulin 10 nM) of the same compound?
A: The A - background was 1918 dpm and 2031 dpm and 1966 dpm.

Q: And the “A: dpm” value ([2]; Insulin 10 nM)?
A: The value was 2023 dpm and 2136 dpm and 2071 dpm.

Q: And the A - background ([2]; Insulin 100 nM)?
A: The A - background was 2363 dpm and 2459 dpm and 2203 dpm.

Q: And the “A: dpm” value ([2]; Insulin 100 nM)?
A: The value was 2468 dpm and 2564 dpm and 2308 dpm.

Q: And the actin polymerization [3]?
A: Its actin polymerization is “observed only following insulin treatment”.

Q: What about the “staining of GLUT4 at the cell surface” value [3] of the same compound?
A: Its value is “strong staining of GLUT4 at the cell surface”.

Q: And the “A: Abs. (450 nm)” value ([4]; Insulin 100 nM)?
A: Its value is 0.287 and 0.285 and 0.286.

Q: How did the “GLUT4 translocation on co-treatment with insulin” value ([1]; 30 μM DS20060511 plus insulin, also at saturating insulin concentration, Fig. 4e) turn out when `COc1ccc2c(C)c(C(=O)O)ccc2c1C1C2=C(CC(C)(C)CC2=O)OC2=C1C(=O)CC(C)(C)C2` [DS20060511] was run?
A: The value was “additive increase of GLUT4 translocation”.

Q: And the GLUT4 translocation ([1]; DS20060511 30 μM, Latrunculin B 0 nM, normalized to vehicle)?
A: The GLUT4 translocation was 1.94 and 1.98 and 1.81.

Q: What about the GLUT4 translocation ([1]; DS20060511 30 μM, Latrunculin B 10 nM) of the same compound?
A: Its GLUT4 translocation is 2.29 and 2.23 and 2.10.

Q: And the GLUT4 translocation ([1]; DS20060511 30 μM, Latrunculin B 30 nM)?
A: Its GLUT4 translocation is 1.81 and 2.08 and 1.91.

Q: And the GLUT4 translocation ([1]; DS20060511 30 μM, Latrunculin B 100 nM)?
A: The GLUT4 translocation was 2.37 and 2.30 and 2.39.

Q: What about the GLUT4 translocation ([1]; DS20060511 30 μM, Latrunculin B 200 nM) of the same compound?
A: Its GLUT4 translocation is 2.39 and 2.15 and 2.06.

Q: What about the Ratio ([1]; DS20060511 0.1 μM) of the same compound?
A: Its Ratio is 1.26 and 1.33.

Q: What about the Ratio ([1]; DS20060511 1 μM) of the same compound?
A: Its Ratio is 1.71 and 1.72 and 1.90.

Q: And the Ratio ([1]; DS20060511 10 μM)?
A: The Ratio was 2.15 and 2.14 and 2.27.

Q: And the A - background ([1]; DS20060511 0.1 μM)?
A: Its A - background is 0.100 and 0.106.

Q: What about the A - background ([1]; DS20060511 1 μM) of the same compound?
A: The A - background was 0.137 and 0.151 and 0.136.

Q: And the “A: Abs. (450 nm)” value ([1]; DS20060511 1 μM)?
A: The value was 0.227 and 0.241 and 0.226.

Q: What about the A - background ([1]; DS20060511 10 μM) of the same compound?
A: Its A - background is 0.170 and 0.180 and 0.171.

Q: What about the “A: Abs. (450 nm)” value ([1]; DS20060511 10 μM) of the same compound?
A: The value was 0.260 and 0.270 and 0.261.

Q: And the “GLUT4 translocation (in words)” value ([1]; differentiated L6-GLUT4myc myotubes, Fig. 1b)?
A: Its value is “increased GLUT4 translocation in differentiated L6-GLUT4myc myotubes in a concentration-dependent manner”.

Q: What about the Ratio ([2]; DS20060511 0.1 μM) of the same compound?
A: Its Ratio is 1.12 and 1.13 and 1.11.

Q: And the Ratio ([2]; DS20060511 1 μM)?
A: Its Ratio is 1.53 and 1.44 and 1.45.

Q: And the Ratio ([2]; DS20060511 10 μM)?
A: Its Ratio is 1.59 and 1.82 and 1.79.

Q: What about the A - background ([2]; DS20060511 0.1 μM) of the same compound?
A: Its A - background is 1376 dpm and 1354 dpm and 1361 dpm.

Q: And the “A: dpm” value ([2]; DS20060511 0.1 μM)?
A: The value was 1481 dpm and 1459 dpm and 1466 dpm.

Q: What about the A - background ([2]; DS20060511 1 μM) of the same compound?
A: Its A - background is 1752 dpm and 1767 dpm and 1863 dpm.

Q: And the “A: dpm” value ([2]; DS20060511 1 μM)?
A: Its value is 1857 dpm and 1872 dpm and 1968 dpm.

Q: What about the A - background ([2]; DS20060511 10 μM) of the same compound?
A: Its A - background is 2208 dpm and 2181 dpm and 1933 dpm.

Q: And the “A: dpm” value ([2]; DS20060511 10 μM)?
A: Its value is 2313 dpm and 2286 dpm and 2038 dpm.

Q: And the “2-DG uptake (in words)” value ([2]; L6-GLUT4myc myotubes, Fig. 1d)?
A: The value was “significantly increased 2-DG uptake in a concentration-dependent manner”.

Q: What about the actin polymerization [3] of the same compound?
A: Its actin polymerization is “observed only following insulin treatment”.

Q: What about the “staining of GLUT4 at the cell surface” value [3] of the same compound?
A: Its value is “strong staining of GLUT4 at the cell surface”.

Q: And the “A: Abs. (450 nm)” value ([4]; DS20060511 0.1 μM, replicates 1-3)?
A: Its value is 0.190 (2×) and 0.196.
